Tests used:
[1] = tested on: PC-3; assay: Cytotoxicity against human PC3 cells assessed as inhibition of cell growth incubated for 72 hrs by SRB assay; type: functional
[2] = tested on: MDA-MB-231; assay: Cytotoxicity against human MDA-MB-231 cells assessed as inhibition of cell growth incubated for 72 hrs by SRB assay; type: functional
[3] = target: DNA topoisomerase 2-alpha (Homo sapiens) (UniProt P11388); assay: Inhibition of human topoisomerase-2 alpha assessed as reduction in conversion of super coiled plasmid DNA to relaxed DNA at 100 uM using supercoiled pBR322 DNA as substrate after 30 mins by ethidium bromide staining based agarose gel electrophoresis method relative to control
DNA topoisomerase 2-alpha (Homo sapiens), sequence (P11388 whole entry): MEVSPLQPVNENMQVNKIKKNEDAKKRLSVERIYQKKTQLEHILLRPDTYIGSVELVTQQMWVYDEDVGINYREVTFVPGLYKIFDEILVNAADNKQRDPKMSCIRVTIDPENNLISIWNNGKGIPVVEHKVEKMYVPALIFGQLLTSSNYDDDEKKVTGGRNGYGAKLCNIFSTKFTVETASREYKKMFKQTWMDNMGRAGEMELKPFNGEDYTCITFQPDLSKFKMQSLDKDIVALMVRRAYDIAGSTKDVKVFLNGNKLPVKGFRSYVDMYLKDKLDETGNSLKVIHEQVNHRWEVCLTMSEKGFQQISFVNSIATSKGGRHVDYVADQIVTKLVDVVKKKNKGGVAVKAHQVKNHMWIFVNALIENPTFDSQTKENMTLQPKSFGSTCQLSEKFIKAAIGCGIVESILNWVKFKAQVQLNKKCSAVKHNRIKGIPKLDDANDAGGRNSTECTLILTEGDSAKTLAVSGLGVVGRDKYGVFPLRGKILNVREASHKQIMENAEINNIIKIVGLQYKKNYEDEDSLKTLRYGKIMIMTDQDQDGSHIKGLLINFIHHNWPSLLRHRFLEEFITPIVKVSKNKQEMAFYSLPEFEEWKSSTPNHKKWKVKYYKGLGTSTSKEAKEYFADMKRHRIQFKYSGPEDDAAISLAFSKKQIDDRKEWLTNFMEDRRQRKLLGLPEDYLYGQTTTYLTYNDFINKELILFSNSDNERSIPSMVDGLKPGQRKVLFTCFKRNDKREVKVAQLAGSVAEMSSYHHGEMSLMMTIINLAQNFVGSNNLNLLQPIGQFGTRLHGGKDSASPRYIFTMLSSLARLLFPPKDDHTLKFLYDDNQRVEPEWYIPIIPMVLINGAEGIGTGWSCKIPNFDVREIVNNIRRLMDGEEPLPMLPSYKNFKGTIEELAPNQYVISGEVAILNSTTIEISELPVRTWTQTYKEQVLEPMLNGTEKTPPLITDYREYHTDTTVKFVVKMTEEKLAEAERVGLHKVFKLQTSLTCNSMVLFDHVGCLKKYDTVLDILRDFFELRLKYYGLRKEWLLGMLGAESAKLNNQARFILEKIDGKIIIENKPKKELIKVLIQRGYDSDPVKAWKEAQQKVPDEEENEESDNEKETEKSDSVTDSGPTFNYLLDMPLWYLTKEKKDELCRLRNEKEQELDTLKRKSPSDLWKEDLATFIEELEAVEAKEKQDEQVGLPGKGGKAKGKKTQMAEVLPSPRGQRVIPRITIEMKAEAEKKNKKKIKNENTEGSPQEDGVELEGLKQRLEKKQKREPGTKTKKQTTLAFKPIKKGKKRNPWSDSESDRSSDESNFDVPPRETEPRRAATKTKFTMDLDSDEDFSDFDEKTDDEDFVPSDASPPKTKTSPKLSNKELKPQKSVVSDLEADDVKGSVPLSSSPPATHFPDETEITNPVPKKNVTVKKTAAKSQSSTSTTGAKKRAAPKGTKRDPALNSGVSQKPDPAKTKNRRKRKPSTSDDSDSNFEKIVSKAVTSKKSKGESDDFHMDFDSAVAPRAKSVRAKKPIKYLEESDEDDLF

[4] = tested on: ACHN; assay: Cytotoxicity against human ACHN cells assessed as inhibition of cell growth incubated for 72 hrs by SRB assay; type: functional
[5] = tested on: NUGC-3; assay: Cytotoxicity against human NUGC3 cells assessed as inhibition of cell growth incubated for 72 hrs by SRB assay; type: functional
[6] = tested on: NCI-H23; assay: Cytotoxicity against human NCI-H23 cells assessed as inhibition of cell growth incubated for 72 hrs by SRB assay; type: functional
[7] = tested on: HCT-15; assay: Cytotoxicity against human HCT15 cells assessed as inhibition of cell growth incubated for 72 hrs by SRB assay; type: functional
[8] = target: DNA topoisomerase 2-alpha (Homo sapiens) (UniProt P11388); assay: Inhibition of human topoisomerase-2 alpha assessed as reduction in conversion of super coiled plasmid DNA to relaxed DNA at 20 uM using supercoiled pBR322 DNA as substrate after 30 mins by ethidium bromide staining based agarose gel electrophoresis method relative to control
[9] = target: DNA topoisomerase 2-alpha (Homo sapiens) (UniProt P11388); assay: Potency index, ratio of inhibitory activity of etoposide to test compound for inhibition of human topoisomerase-2 alpha at 100 uM using supercoiled pBR322 DNA as substrate after 30 mins by ethidium bromide staining based agarose gel electrophoresis method relative to control
[10] = target: DNA topoisomerase 2-alpha (Homo sapiens) (UniProt P11388); assay: Potency index, ratio of inhibitory activity of etoposide to test compound for inhibition of human topoisomerase-2 alpha at 20 uM using supercoiled pBR322 DNA as substrate after 30 mins by ethidium bromide staining based agarose gel electrophoresis method relative to control

inhibition [3] | inhibition [8] | Ratio [9] | Ratio [10] | SMILES | GI50 ([1]; Homo sapiens, PC-3, 72 h) | GI50 ([2]; Homo sapiens, MDA-MB-231, 72 h) | GI50 ([4]; Homo sapiens, ACHN, 72 h) | GI50 ([5]; Homo sapiens, NUGC-3, 72 h) | GI50 ([6]; Homo sapiens, NCI-H23, 72 h) | GI50 ([7]; Homo sapiens, HCT-15, 72 h) | GI50 [1] | GI50 [4] | GI50 [2] | GI50 [5] | GI50 [6] | GI50 [7]
0.2% |  |  |  | COc1ccc(-c2cc(-c3cccc(C#N)c3)nc3cnc4ccccc4c23)cc1 | 3.15 µM | 1.79 µM | 3.86 µM | 2030 nM | 1890 nM | 1.79 µM |  |  |  |  |  | 
 |  |  |  | COc1ccc(-c2cc(-c3cccs3)nc3cnc4ccccc4c23)cc1 | 6.88 µM | 7.69 µM | 5.65 µM | 2000 nM | 3300 nM | 7.06 µM |  |  |  |  |  | 
91.3% | 42.4% | 1.3 | 1.2 | COc1ccc(-c2cc(-c3ccc(N(C)C)cc3)nc3cnc4ccccc4c23)cc1 | 2.98 µM | 2.3 µM | 1.98 µM | 1950 nM | 1720 nM | 1.86 µM |  |  |  |  |  | 
 |  |  |  | COc1ccc(-c2cc(-c3cccc4ccccc34)nc3cnc4ccccc4c23)cc1 [listing 1 of 2 here] |  | 2.81 µM |  | 2160 nM | 1650 nM | 2.72 µM | 3.38 µM | 5.36 µM |  |  |  | 
 |  |  |  | COc1ccc(-c2cc(-c3ccccc3Br)nc3cnc4ccccc4c23)cc1 | > 10 µM | > 10 µM | > 10 µM | > 10000 nM | > 10000 nM | > 10 µM |  |  |  |  |  | 
 |  |  |  | CCn1cc(-c2cc(-c3ccc(OC)cc3)c3c(cnc4ccccc43)n2)c2ccccc21 | 6.15 µM | 3.04 µM | 5.61 µM | 3030 nM | 2070 nM | 4.88 µM |  |  |  |  |  | 
 |  |  |  | COc1ccc(-c2cc(-c3ccccc3Cl)nc3cnc4ccccc4c23)cc1 | 4.46 µM | 3.32 µM | 3.27 µM | 3000 nM | 2550 nM | 2.15 µM |  |  |  |  |  | 
 |  |  |  | COc1ccc(-c2cc(-c3cccc4ccccc34)nc3cnc4ccccc4c23)cc1 [listing 2 of 2 here] |  |  |  |  |  |  | 1.57 µM | 2.25 µM | 1.51 µM | 1680 nM | 1810 nM | 1.98 µM
 |  |  |  | COc1ccc(-c2c(C)c(-c3ccccc3Br)nc3cnc4ccccc4c23)cc1 | > 10 µM | > 10 µM | > 10 µM | > 10000 nM | > 10000 nM | > 10 µM |  |  |  |  |  | 
 |  |  |  | COc1ccc(-c2cc(-c3ccc(C(F)(F)F)cc3)nc3cnc4ccccc4c23)cc1 | > 10 µM | > 10 µM | > 10 µM | > 10000 nM | > 10000 nM | > 10 µM |  |  |  |  |  | 
 |  |  |  | COc1ccc(-c2cc(-c3ccc([N+](=O)[O-])cc3)nc3cnc4ccccc4c23)cc1 [listing 1 of 2 here] |  |  |  |  |  |  | 3.59 µM | 3.92 µM | 3.49 µM | 2870 nM | 2420 nM | 4.37 µM
 |  |  |  | COc1ccc(-c2cc(-c3ccccc3)nc3cnc4ccccc4c23)cc1 | 3.07 µM | 7.28 µM | 2.13 µM | 5830 nM | 4020 nM | 4.38 µM |  |  |  |  |  | 
 |  |  |  | COc1cccc2c1C(=O)c1c(O)c3c(c(O)c1C2=O)C[C@@](O)(C(=O)CO)C[C@@H]3O[C@H]1C[C@H](N)[C@H](O)[C@H](C)O1 [DOXORUBICIN] | 0.076 µM | 0.068 µM | 0.08 µM | 86 nM | 90 nM | 0.077 µM |  |  |  |  |  | 
 |  |  |  | COc1ccc(-c2cc(-c3ccc(Br)cc3)nc3cnc4ccccc4c23)cc1 | 6.75 µM | 2.58 µM | 4.95 µM | 1850 nM | 1620 nM | 1.97 µM |  |  |  |  |  | 
 |  |  |  | COc1ccc(-c2cc(-c3ccc(OC)cc3)c3c(cnc4ccccc43)n2)cc1 | > 10 µM | > 10 µM | > 10 µM | > 10000 nM | > 10000 nM | > 10 µM |  |  |  |  |  | 
 |  |  |  | COc1ccc(-c2cc(-c3ccc([N+](=O)[O-])cc3)nc3cnc4ccccc4c23)cc1 [listing 2 of 2 here] |  |  |  |  |  |  | > 10 µM | > 10 µM | > 10 µM | > 10000 nM | > 10000 nM | > 10 µM
 |  |  |  | CCCCCCn1cc(-c2cc(-c3ccc(OC)cc3)c3c(cnc4ccccc43)n2)c2ccccc21 | > 10 µM | > 10 µM | > 10 µM | > 10000 nM | > 10000 nM | > 10 µM |  |  |  |  |  | 
 |  |  |  | COc1ccc(-c2cc(-c3ccc(OC)c4ccccc34)nc3cnc4ccccc4c23)cc1 | > 10 µM | > 10 µM | > 10 µM | > 10000 nM | > 10000 nM | > 10 µM |  |  |  |  |  | 
3% |  |  |  | COc1ccc(-c2cc(-c3ccc(Cl)cc3)nc3cnc4ccccc4c23)cc1 | 1.53 µM | 2.94 µM | 1.69 µM | 2170 nM | 1700 nM | 4.82 µM |  |  |  |  |  | 
 |  |  |  | COc1ccc(-c2cc(-c3ccc(C(F)(F)F)cc3C(F)(F)F)nc3cnc4ccccc4c23)cc1 | > 10 µM | > 10 µM | > 10 µM | > 10000 nM | > 10000 nM | > 10 µM |  |  |  |  |  | 
 |  |  |  | COc1ccc(-c2cc(-c3ccc4ccccc4c3)nc3cnc4ccccc4c23)cc1 | > 10 µM | > 10 µM | > 10 µM | > 10000 nM | > 10000 nM | > 10 µM |  |  |  |  |  | 
 |  |  |  | COc1ccc(-c2cc(-c3ccccc3[N+](=O)[O-])nc3cnc4ccccc4c23)cc1 | > 10 µM | > 10 µM | > 10 µM | > 10000 nM | > 10000 nM | > 10 µM |  |  |  |  |  | 
